The results in this text go back to ChEMBL document CHEMBL1143069, “Methoxylation of 3',4'-aromatic side chains improves P-glycoprotein inhibitory and multidrug resistance reversal activities of 7,8-pyranocoumarin against cancer cells” (Bioorg Med Chem, 2008).

Assay [1] has as its system K562. Description: Inhibition of human Pgp-ATPase activity in doxorubicin-resistant K562 cells. The format is cell-based.
Assay [2] concerns HepG2. Description: Inhibition of Pgp mediated Rh123 efflux in doxorubicin-resistant human HepG2 cells assessed as increase in cellular fluorescence of substrate at 10 uM. The format is cell-based. Also noted: scale not given: the % may be the effect or the level left.
Assay [3] has as its system K562. Kind of assay: Inhibition of Pgp mediated Rh123 efflux in doxorubicin-resistant human K562 cells assessed as increase in cellular fluorescence of substrate at 10 uM. The format is cell-based. The arrangement: scale not given: the % may be the effect or the level left.
The test system of assay [4] is K562. Description: Inhibition of Pgp mediated Hoechst 33342 efflux in doxorubicin-resistant human K562 cells assessed as increase in cellular fluorescence of substrate at 10 uM. The format is cell-based. The arrangement: scale not given: the % may be the effect or the level left.
In assay [5] the test system is HepG2. Description: Increase in monoclonal antibody UIC2 binding to human Pgp in doxorubicin-resistant human HepG2 cells. The format is cell-based.
Assay [6] deals with HepG2. Kind of assay: Inhibition of Pgp mediated Hoechst 33342 efflux in doxorubicin-resistant human HepG2 cells assessed as increase in cellular fluorescence of substrate at 10 uM. Also noted: scale not given: the % may be the effect or the level left. The format is cell-based.
The nature of assay [7]: Growth inhibition of human KB V1 cells after 72 hrs by MTT assay. The format is functional, cell-based. Particulars: KB-V1, 72 h. A general note: Tetrazolium dyes change colour on reduction, which living cells bring about.
Assay [8] is described as follows: Growth inhibition of human KB3-1 cells after 72 hrs by MTT assay. Particulars: KB 3-1, 72 h. The format is functional, cell-based.
Assay [9] relates to K562. Kind of assay: Growth inhibition of human K562 cells after 72 hrs by SRB assay. The format is functional, cell-based. The settings on record: K562, 72 h. For orientation: The SRB assay estimates cell density from bound dye.
Assay [10] has as its system K562. Kind of assay: Growth inhibition of doxorubicin-resistant human K562 cells after 72 hrs by SRB assay. The format is functional, cell-based. Particulars: K562, 72 h.
Assay [11] concerns HepG2. Kind of assay: Growth inhibition of human HepG2 cells after 72 hrs by MTT assay. The format is functional, cell-based. Particulars: HepG2, 72 h.
Assay [12] deals with HepG2. Description: Growth inhibition of doxorubicin resistant human HepG2 cells after 72 hrs by MTT assay. The format is functional, cell-based. Particulars: HepG2, 72 h.
The test system of assay [13] is K562. Particulars: Homo sapiens.
Assay [14] concerns K562. Particulars: Homo sapiens. This is another data set of the same source.
For assay [15], the system named is K562. Particulars: Homo sapiens. This is another data set of the same source.
The test system of assay [16] is HepG2. Kind of assay: Effect on Pgp expression level in doxorubicin resistant human HepG2 cells at 8 uM after 72 hrs by Western blot. The format is functional, cell-based. Background: In western blotting, separated proteins are transferred to a membrane and probed.
Assay [17] relates to K562. Description: Effect on Pgp expression level in doxorubicin resistant human K562 cells at 4 uM after 72 hrs by Western blot. The format is functional, cell-based.
The test system of assay [18] is K562. Description: Effect on Pgp expression level in doxorubicin resistant human K562 cells at 20 uM after 72 hrs by Western blot. The format is functional, cell-based.
Assay [19] relates to KB-V1. Kind of assay: Effect on Pgp expression level in human KB V1 cells at 20 uM after 72 hrs by Western blot. The format is functional, cell-based.
Assay [20] relates to KB-V1. Description: Effect on Pgp expression level in human KB V1 cells at 4 uM after 72 hrs by Western blot. The format is functional, cell-based.
Assay [21] deals with HepG2. Kind of assay: Effect on Pgp expression level in doxorubicin resistant human HepG2 cells at 4 uM after 72 hrs by Western blot. The format is functional, cell-based.
The test system of assay [22] is K562. Kind of assay: Inhibition of Pgp mediated Hoechst 33342 efflux in doxorubicin-resistant human K562 cells assessed as increase in cellular fluorescence of substrate at 5 uM. The format is cell-based. The arrangement: scale not given: the % may be the effect or the level left.
In assay [23] the test system is HepG2. Description: Effect on Pgp expression level in doxorubicin resistant human HepG2 cells at 20 uM after 72 hrs by Western blot. The format is functional, cell-based.
The test system of assay [24] is K562. Kind of assay: Effect on Pgp expression level in doxorubicin resistant human K562 cells at 8 uM after 72 hrs by Western blot. The format is functional, cell-based.
The subject of assay [25] is HepG2. Kind of assay: Inhibition of Pgp mediated Hoechst 33342 efflux in doxorubicin-resistant human HepG2 cells assessed as increase in cellular fluorescence of substrate at 5 uM. Also noted: scale not given: the % may be the effect or the level left. The format is cell-based.

Molecules are shown by their SMILES. Calls of active or inactive are those of the source. No cut-off for these calls is given here.

In the case of `CC1(C)Oc2ccc3ccc(=O)oc3c2C(OC(=O)/C=C/c2ccccc2)C1OC(=O)/C=C/c1ccccc1` (racemic), in the assay on K562 [1], the outcome was Active. For the same compound, the Activity in the assay with HepG2 [2] came out at 50%; in the assay on K562 [3] it was 20%; in the assay on K562 [4], 100%; with HepG2 [6], 100%. For the same compound, in the assay with HepG2 [5], the outcome was inactive.

The term IC50 denotes the concentration at which inhibition is half-maximal. As for `COc1cccc2c1C(=O)c1c(O)c3c(c(O)c1C2=O)C[C@@](O)(C(=O)CO)C[C@@H]3O[C@H]1C[C@H](N)[C@H](O)[C@H](C)O1` [DOXORUBICIN], the values for the IC50 in [7] and in assay [8] were 32 µM and 180 nM, respectively.

As to `COc1ccc(/C=C/C(=O)OC2c3c(ccc4ccc(=O)oc34)OC(C)(C)C2OC(=O)/C=C/c2ccc(OC)cc2)cc1` (racemic), the IC50 was determined as 67.6 µM in the assay on K562 [9], 81 µM in the assay on K562 [10], 55200 nM in the assay with HepG2 [11] and 72.6 µM in the assay on HepG2 [12].

As a reminder, the Km is the concentration of substrate that gives half-maximal velocity. As to `CC(=O)[C@H]1CC[C@H]2[C@@H]3CCC4=CC(=O)CC[C@]4(C)[C@H]3CC[C@]12C`, the Michaelis constant (Km) was determined as 9.97 µM in the assay with K562 [13] and 6.57 µM in the assay on K562 [14].

Consider `COc1ccc(CC(N)C(=O)N[C@H]2[C@@H](O)[C@H](n3cnc4c(N(C)C)ncnc43)O[C@@H]2CO)cc1` (single isomer, unassigned) [PUROMYCIN], for which the IC50 with K562 [9] turned out to be 0.22 µM; in the assay on K562 [10], 26.8 µM; in assay [7], 79.3 µM; in assay [8], 210 nM; with HepG2 [11] it was 230 nM; in the assay on HepG2 [12], 83.9 µM.

Regarding `COc1ccc(CCN(C)CCC[C@](C#N)(c2ccc(OC)c(OC)c2)C(C)C)cc1OC`, the Km was 0.7 µM with K562 [13] and 0.89 µM in the assay on K562 [15].

Regarding `CC(=O)O[C@H]1C(=O)[C@@]2(C)[C@H]([C@H](OC(=O)c3ccccc3)[C@]3(O)C[C@H](OC(=O)[C@H](O)[C@@H](NC(=O)c4ccccc4)c4ccccc4)C(C)=C1C3(C)C)[C@]1(OC(C)=O)CO[C@@H]1C[C@@H]2O` [PACLITAXEL], the IC50 is 4.14 µM in the assay with K562 [10]; 8 µM in [7]; 2 nM in assay [8]; 7 nM with HepG2 [11]; 4.15 µM in the assay on HepG2 [12].

As to `CC[C@]1(O)C[C@@H]2CN(CCc3c([nH]c4ccccc34)[C@@](C(=O)OC)(c3cc4c(cc3OC)N(C)[C@H]3[C@@](O)(C(=O)OC)[C@H](OC(C)=O)[C@]5(CC)C=CCN6CC[C@]43[C@@H]65)C2)C1` [VINBLASTINE], the IC50 in the assay with K562 [9] worked out at 0.00088 µM; in the assay with K562 [10], 0.17 µM; in [7], 1.04 µM; in [8], 0.11 nM; with HepG2 [11], 0.07 nM; with HepG2 [12] it was 0.44 µM.

As to `COc1ccc(/C=C/C(=O)OC2c3c(ccc4ccc(=O)oc34)OC(C)(C)C2OC(=O)/C=C/c2ccc(OC)c(OC)c2)cc1OC` (racemic), the outcome with K562 [1] and in the assay with HepG2 [5] was Active. In addition, the outcome with HepG2 [16], with K562 [17], in the assay with K562 [18], with KB-V1 [19], with KB-V1 [20] and in the assay with HepG2 [21] was inactive. In addition, the result in the assay with HepG2 [23] and in the assay with K562 [24] was inactive. For the same compound, the concentration for half-maximal inhibition (IC50) stood at 54.4 µM in the assay on K562 [9]; 70 µM with K562 [10]; 32.3 µM in assay [7]; 61700 nM in assay [8]; 54700 nM in the assay on HepG2 [11]; 76.3 µM in the assay with HepG2 [12]. Also, the Activity in the assay on K562 [22] and with HepG2 [25] was 200% each time.
